Laboratory results taken from publication PMC3822689 (Journal of Cellular and Molecular Medicine, 2012).

Legend:
[1] = system: CBR (central benzodiazepine binding sites, rat cerebral cortex membranes); assay: [3H] Ro 15-1788 binding, central benzodiazepine receptor; conditions: 10 and 100 μM
[2] = biological target: PBR (peripheral benzodiazepine binding sites, rat kidney mitochondrial membranes) (Rattus norvegicus, UniProt P16257); assay: [3H]-PK 11195 binding, peripheral benzodiazepine receptor; conditions: 10 and 100 μM
PBR (peripheral benzodiazepine binding sites, rat kidney mitochondrial membranes), sequence (P16257 whole entry): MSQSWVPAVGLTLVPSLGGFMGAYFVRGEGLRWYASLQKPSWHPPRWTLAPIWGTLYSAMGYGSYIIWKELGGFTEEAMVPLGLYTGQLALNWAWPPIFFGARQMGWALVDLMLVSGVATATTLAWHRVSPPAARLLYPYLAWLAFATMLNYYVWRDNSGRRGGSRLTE

SMILES | affinity for CBR [1] | affinity for PBR [2]
CN1C(=O)CN=C(c2ccccc2)c2cc(Cl)ccc21 [diazepam] | high affinity | high affinity
CCC(C)N(C)C(=O)c1cc2ccccc2c(-c2ccccc2Cl)n1 (stereo not shown) [PK 11195, 1-(2-chlorophenyl)-N-methyl-N-(1-methylpropyl)-3-isoquinoline carboxamide] |  | high affinity
CCOC(=O)c1ncn2c1CN(C)C(=O)c1cc(F)ccc1-2 [Ro 15–1788] | high affinity | 
